# Reference: the supplement of paper PMC10307832
# What was measured:
# Assay in all cases: relative viability (nuclei count vs DMSO), 5 days (fraction); higher = more cells survive
# NCI-H2347 = test system: NCI-H2347
# Procedure, shortened: (§1)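 Five library-drug doses in √10 steps were combined with a fixed anchor-drug dose, or a single drug was given alone, by pin tool to lung cancer cell lines in 1536-well plates the day after seeding. Nuclei were stained and counted after 5 days. Relative viability is the nuclei count in treated wells over that in vehicle wells, taken as the median of duplicate plates.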
# EPLC-272H = test system: EPLC-272H
# Procedure, shortened: as §1
# H3255 = test system: H3255
# Procedure, shortened: as §1
# NCI-H650 = test system: NCI-H650
# Procedure, shortened: as §1
# 201T = test system: 201T
# Procedure, shortened: as §1
# COR-L 105 = test system: COR-L 105
# Procedure, shortened: as §1
# NCI-H2087 = test system: NCI-H2087
# Procedure, shortened: as §1
# NCI-H2126 = test system: NCI-H2126
# Procedure, shortened: as §1
# NCI-H2405 = test system: NCI-H2405
# Procedure, shortened: as §1
# HCC-78 = test system: HCC-78
# Procedure, shortened: as §1
# LC-2-ad = test system: LC-2-ad
# Procedure, shortened: as §1
# NCI-H1666 = test system: NCI-H1666
# Procedure, shortened: as §1
# LCLC-97TM1 = test system: LCLC-97TM1
# Procedure, shortened: as §1
# NCI-H23 = test system: NCI-H23
# Procedure, shortened: as §1
# NCI-H322M = test system: NCI-H322M
# Procedure, shortened: as §1
# HCC-827 = test system: HCC-827
# Procedure, shortened: as §1
# NCI-H1915 = test system: NCI-H1915
# Procedure, shortened: as §1
# NCI-H520 = test system: NCI-H520
# Procedure, shortened: as §1
# NCI-H661 = test system: NCI-H661
# Procedure, shortened: as §1
# PC-14 = test system: PC-14
# Procedure, shortened: as §1
# RERF-LC-KJ = test system: RERF-LC-KJ
# Procedure, shortened: as §1
# NCI-H647 = test system: NCI-H647
# Procedure, shortened: as §1
structure (smiles),measurement,setting,value
CC(C)Oc1cc(Nc2nc(N[C@@H](C)c3ccc(F)cn3)ncc2Cl)n[nH]1 [AZ23] + C[C@]1(O)C[C@@H](c2nc(-c3ccc4ccc(-c5ccccc5)nc4c3)c3c(N)nccn32)C1 [Linsitinib] (partner 1 µM),relative viability,NCI-H2347; first compound 0.01 µM,1.03
same,relative viability,NCI-H2347; first compound 0.03162 µM,0.993
same,relative viability,NCI-H2347; first compound 0.3162 µM,0.926
same,relative viability,EPLC-272H; first compound 0.01 µM,1.26
same,relative viability,EPLC-272H; first compound 0.03162 µM,1.22
same,relative viability,H3255; first compound 0.01 µM,1.03
same,relative viability,H3255; first compound 0.03162 µM,1.08
same,relative viability,H3255; first compound 0.3162 µM,0.985
same,relative viability,NCI-H650; first compound 0.01 µM,0.648
same,relative viability,NCI-H650; first compound 0.03162 µM,0.893
same,relative viability,NCI-H650; first compound 0.3162 µM,0.857
same,relative viability,201T; first compound 0.01 µM,1.01
same,relative viability,201T; first compound 0.03162 µM,1.11
same,relative viability,201T; first compound 0.3162 µM,0.996
same,relative viability,COR-L 105; first compound 0.01 µM,0.664
same,relative viability,COR-L 105; first compound 0.03162 µM,1.14
same,relative viability,COR-L 105; first compound 0.3162 µM,0.808
same,relative viability,NCI-H2087; first compound 0.01 µM,1.34
same,relative viability,NCI-H2087; first compound 0.03162 µM,1.06
same,relative viability,NCI-H2087; first compound 0.3162 µM,0.955
same,relative viability,NCI-H2126; first compound 0.01 µM,0.737
same,relative viability,NCI-H2126; first compound 0.03162 µM,0.739
same,relative viability,NCI-H2126; first compound 0.3162 µM,0.684
same,relative viability,NCI-H2405; first compound 0.01 µM,0.976
same,relative viability,NCI-H2405; first compound 0.03162 µM,0.902
same,relative viability,NCI-H2405; first compound 0.3162 µM,0.873
same,relative viability,HCC-78; first compound 0.01 µM,0.495
same,relative viability,HCC-78; first compound 0.03162 µM,0.431
same,relative viability,HCC-78; first compound 0.3162 µM,0.434
same,relative viability,LC-2-ad; first compound 0.01 µM,0.941
same,relative viability,LC-2-ad; first compound 0.03162 µM,0.931
same,relative viability,LC-2-ad; first compound 0.3162 µM,0.851
same,relative viability,NCI-H1666; first compound 0.01 µM,0.719
same,relative viability,NCI-H1666; first compound 0.03162 µM,0.943
same,relative viability,NCI-H1666; first compound 0.3162 µM,0.775
same,relative viability,LCLC-97TM1; first compound 0.01 µM,0.185
same,relative viability,LCLC-97TM1; first compound 0.03162 µM,0.17
same,relative viability,LCLC-97TM1; first compound 0.3162 µM,0.168
same,relative viability,NCI-H23; first compound 0.03162 µM,0.697
same,relative viability,NCI-H23; first compound 0.3162 µM,0.596
same,relative viability,NCI-H322M; first compound 0.01 µM,0.919
same,relative viability,NCI-H322M; first compound 0.03162 µM,0.957
same,relative viability,NCI-H322M; first compound 0.3162 µM,1.13
same,relative viability,HCC-827; first compound 0.01 µM,1
same,relative viability,HCC-827; first compound 0.03162 µM,1.04
same,relative viability,HCC-827; first compound 0.3162 µM,0.93
same,relative viability,NCI-H1915; first compound 0.01 µM,1.13
same,relative viability,NCI-H1915; first compound 0.03162 µM,1.1
same,relative viability,NCI-H1915; first compound 0.3162 µM,1.09
same,relative viability,NCI-H520; first compound 0.01 µM,1.18
same,relative viability,NCI-H520; first compound 0.03162 µM,1.04
same,relative viability,NCI-H520; first compound 0.3162 µM,0.921
same,relative viability,NCI-H661; first compound 0.01 µM,0.531
same,relative viability,NCI-H661; first compound 0.03162 µM,0.776
same,relative viability,NCI-H661; first compound 0.3162 µM,0.623
same,relative viability,PC-14; first compound 0.01 µM,0.946
same,relative viability,PC-14; first compound 0.03162 µM,1.16
same,relative viability,PC-14; first compound 0.3162 µM,1.03
same,relative viability,RERF-LC-KJ; first compound 0.01 µM,0.833
same,relative viability,RERF-LC-KJ; first compound 0.03162 µM,0.992
same,relative viability,RERF-LC-KJ; first compound 0.3162 µM,0.987
same,relative viability,NCI-H647; first compound 0.01 µM,1.48
same,relative viability,NCI-H647; first compound 0.03162 µM,1.17
same,relative viability,NCI-H647; first compound 0.3162 µM,1.26
CC(C)Oc1cc(Nc2nc(N[C@@H](C)c3ccc(F)cn3)ncc2Cl)n[nH]1 [AZ23] + Cc1nc(NC(=O)N2CCC[C@H]2C(N)=O)sc1-c1ccnc(C(C)(C)C(F)(F)F)c1 [Alpelisib] (partner 2 µM),relative viability,NCI-H2347; first compound 0.01 µM,1.06
same,relative viability,NCI-H2347; first compound 0.03162 µM,1.09
same,relative viability,NCI-H2347; first compound 0.3162 µM,1.08
same,relative viability,EPLC-272H; first compound 0.01 µM,0.873
same,relative viability,EPLC-272H; first compound 0.03162 µM,1.18
same,relative viability,H3255; first compound 0.01 µM,0.637
same,relative viability,H3255; first compound 0.03162 µM,0.868
same,relative viability,H3255; first compound 0.3162 µM,0.863
same,relative viability,NCI-H650; first compound 0.01 µM,1.03
same,relative viability,NCI-H650; first compound 0.03162 µM,1.19
same,relative viability,NCI-H650; first compound 0.3162 µM,1.16
same,relative viability,201T; first compound 0.01 µM,1.03
same,relative viability,201T; first compound 0.03162 µM,1.09
same,relative viability,201T; first compound 0.3162 µM,1.02
same,relative viability,COR-L 105; first compound 0.01 µM,0.676
same,relative viability,COR-L 105; first compound 0.03162 µM,1.33
same,relative viability,COR-L 105; first compound 0.3162 µM,0.813
same,relative viability,NCI-H2087; first compound 0.01 µM,1.39
same,relative viability,NCI-H2087; first compound 0.03162 µM,1.07
same,relative viability,NCI-H2087; first compound 0.3162 µM,1.07
same,relative viability,NCI-H2126; first compound 0.01 µM,0.768
same,relative viability,NCI-H2126; first compound 0.03162 µM,0.698
same,relative viability,NCI-H2126; first compound 0.3162 µM,0.769
same,relative viability,NCI-H2405; first compound 0.01 µM,0.708
same,relative viability,NCI-H2405; first compound 0.03162 µM,0.768
same,relative viability,NCI-H2405; first compound 0.3162 µM,0.754
same,relative viability,HCC-78; first compound 0.01 µM,0.348
same,relative viability,HCC-78; first compound 0.03162 µM,0.286
same,relative viability,HCC-78; first compound 0.3162 µM,0.306
same,relative viability,LC-2-ad; first compound 0.01 µM,1.01
same,relative viability,LC-2-ad; first compound 0.03162 µM,0.895
same,relative viability,LC-2-ad; first compound 0.3162 µM,0.892
same,relative viability,NCI-H1666; first compound 0.01 µM,0.869
same,relative viability,NCI-H1666; first compound 0.03162 µM,1.02
same,relative viability,NCI-H1666; first compound 0.3162 µM,0.92
same,relative viability,LCLC-97TM1; first compound 0.01 µM,0.228
same,relative viability,LCLC-97TM1; first compound 0.03162 µM,0.246
same,relative viability,LCLC-97TM1; first compound 0.3162 µM,0.245
same,relative viability,NCI-H23; first compound 0.03162 µM,0.749
same,relative viability,NCI-H23; first compound 0.3162 µM,0.573
same,relative viability,NCI-H322M; first compound 0.01 µM,0.774
same,relative viability,NCI-H322M; first compound 0.03162 µM,0.774
same,relative viability,NCI-H322M; first compound 0.3162 µM,0.823
same,relative viability,HCC-827; first compound 0.01 µM,1.11
same,relative viability,HCC-827; first compound 0.03162 µM,1.05
same,relative viability,HCC-827; first compound 0.3162 µM,1.07
same,relative viability,NCI-H1915; first compound 0.01 µM,1.17
same,relative viability,NCI-H1915; first compound 0.03162 µM,1.09
same,relative viability,NCI-H1915; first compound 0.3162 µM,1.04
same,relative viability,NCI-H520; first compound 0.01 µM,1.06
same,relative viability,NCI-H520; first compound 0.03162 µM,0.988
same,relative viability,NCI-H520; first compound 0.3162 µM,0.752
same,relative viability,NCI-H661; first compound 0.01 µM,0.629
same,relative viability,NCI-H661; first compound 0.03162 µM,0.686
same,relative viability,NCI-H661; first compound 0.3162 µM,0.908
same,relative viability,PC-14; first compound 0.01 µM,0.897
same,relative viability,PC-14; first compound 0.03162 µM,1.13
same,relative viability,PC-14; first compound 0.3162 µM,1.06
same,relative viability,RERF-LC-KJ; first compound 0.01 µM,0.714
same,relative viability,RERF-LC-KJ; first compound 0.03162 µM,0.925
same,relative viability,RERF-LC-KJ; first compound 0.3162 µM,0.845
same,relative viability,NCI-H647; first compound 0.01 µM,1.63
same,relative viability,NCI-H647; first compound 0.03162 µM,1.37
same,relative viability,NCI-H647; first compound 0.3162 µM,1.17
